From US20090170813A1, “Hypophosphorous Acid Derivatives and their Therapeutical Applications” (priority 2005, published 2009)

Molecular target: T1, rat mGlu4 (Rattus norvegicus, UniProt P31423)
T1 construct: expressed in transfected cells; host or cells: HEK293
Experiment: Agonist activity, [3H]phosphatidylinositol accumulation in HEK293 cells transfected with rat mGlu4 and Gqi9
Assay type: cell-based
Details: for EC50: Table 2, n in brackets, read-out: mGlu4 EC50 μM (n); for mGlu4 agonist character (partial): Table 2, remark beside EC50
Method: Agonist activity of the compounds was tested on HEK293 cells transiently transfected with rat mGlu4 expressing plasmid pRKG4 and chimeric G-protein Gqi9 by electroporation, as described by Gomeza, J. et al, Mol. Pharmacol; 1996, 50, 923-930.
Cells were plated in 96-well culture plates and labeled overnight with [^3H]myoinositol. The day after, cells were washed three times with Krebs buffer, incubated for 10 min with LiCl 5 mM, and then incubated for 30 min in the absence (basal) or in the presence of the indicated compounds at 1 nM up to 1000 μM. The total amount of [^3H]phosphatidylinositol accumulated in the cells was determined after Dowex purification as previously by Goudet C, et al, Prod. Natl. Acad. Sci. USA 2004, 101, 378-383.
The response dosis curves were adjusted by using equatrier y=[(Ymax−ymin)/(1+(x/EC50)^n)]+ymin where EC50 is the concentration necessary for obtaining half of the maximal effect and n is Hill coefficient.

T1 sequence (P31423 33-912): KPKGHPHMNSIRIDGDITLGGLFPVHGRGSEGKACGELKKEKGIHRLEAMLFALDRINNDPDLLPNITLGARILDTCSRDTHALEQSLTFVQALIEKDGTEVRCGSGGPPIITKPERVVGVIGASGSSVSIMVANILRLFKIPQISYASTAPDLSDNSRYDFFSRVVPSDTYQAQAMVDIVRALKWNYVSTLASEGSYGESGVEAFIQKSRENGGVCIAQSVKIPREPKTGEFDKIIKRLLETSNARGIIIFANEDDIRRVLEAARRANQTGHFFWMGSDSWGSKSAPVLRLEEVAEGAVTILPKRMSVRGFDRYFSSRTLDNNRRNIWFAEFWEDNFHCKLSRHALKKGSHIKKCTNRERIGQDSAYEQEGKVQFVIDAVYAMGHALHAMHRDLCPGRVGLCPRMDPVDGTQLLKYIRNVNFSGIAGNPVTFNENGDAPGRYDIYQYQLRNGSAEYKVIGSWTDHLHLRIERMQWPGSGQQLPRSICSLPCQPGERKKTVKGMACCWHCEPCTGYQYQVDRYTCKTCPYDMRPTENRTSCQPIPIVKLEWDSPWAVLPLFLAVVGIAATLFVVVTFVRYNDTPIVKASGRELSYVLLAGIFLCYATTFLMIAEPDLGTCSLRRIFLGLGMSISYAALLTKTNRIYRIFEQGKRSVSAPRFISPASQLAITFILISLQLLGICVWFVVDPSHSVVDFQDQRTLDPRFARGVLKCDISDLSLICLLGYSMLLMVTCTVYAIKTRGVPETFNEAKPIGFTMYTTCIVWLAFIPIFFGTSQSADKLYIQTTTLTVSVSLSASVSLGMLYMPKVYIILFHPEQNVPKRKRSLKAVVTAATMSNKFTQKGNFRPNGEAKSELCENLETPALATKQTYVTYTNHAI

Compound | EC50 | other results
Cc1ccc(C(O)P(=O)(O)CC[C@H](N)C(=O)O)cc1[N+](=O)[O-] (stereo partly shown) [Compound 52] | 1.69 µM | 
N[C@@H](CCP(=O)(O)CCP(=O)(O)O)C(=O)O [Compound 42, (3S)-3-[((3-Amino-3-carboxy)propyl)(hydroxy)phosphinyl]ethylphosphonate] |  | mGlu4 % max at 100 μM: 40% max at 100 μM (1)
N[C@@H](CCP(=O)(O)C(O)c1ccc(C(F)(F)F)cc1)C(=O)O (stereo partly shown) [Compound 54] | 22.2 µM | 
N[C@@H](CCP(=O)(O)C(O)c1ccc([N+](=O)[O-])cc1[N+](=O)[O-])C(=O)O (stereo partly drawn) [Compound 70, (3S)-4-[(((3-amino-3-carboy)propyl)(hydroxy)phosphinyl)-hydroxymethyl]-1,3-dinitrobenzene] | 1 µM | 
N[C@@H](CCP(=O)(O)C(O)c1cccc(C(=O)O)c1)C(=O)O (stereo partly drawn) [Compound 24, (3S)-3-[(((3-amino-3-carboxy)propyl)(hydroxy)phosphinyl)-hydroxymethyl]benzoic Acid] | 20.8 µM | 
N[C@@H](CCP(=O)(O)C(O)C1CC1C(=O)O)C(=O)O (single isomer, unassigned) [CS158] | 5.1 µM | 
N[C@@H](CCP(=O)(O)C1COC(=O)C1)C(=O)O (stereo partly drawn) [Compound 36, (3S)-4-[((3-amino-3-carboxy)propyl)(hydroxy)phosphinyl]furanone] | 11.5 µM | mGlu4 agonist character (partial): partial
N[C@@H](CCP(=O)(O)CCCC(=O)O)C(=O)O [Compound 48, (3S)-4-[((3-Amino-3-carboxy)propyl)(hydroxy)phosphinyl]butanoic Acid] |  | mGlu4 % max at 100 μM: 80% max at 100 μM (1)
N[C@@H](CCP(=O)(O)C(O)C1CC1C(=O)O)C(=O)O (single isomer, unassigned) [CS159] | 12.9 µM | mGlu4 agonist character (partial): partial
N[C@@H](CCP(=O)(O)CCC(=O)O)C(=O)O [Compound 7, (3S)-3-[((3-Amino-3-carboxy)propyl)(hydroxy)phosphinyl]propanoic Acid] | 6.4 µM | 
NC(CCP(=O)(O)C(CC(=O)O)C(=O)O)C(=O)O (stereo not shown) [Compound 11] | 59 µM | 
NC(CCP(=O)(O)CCCCC(=O)O)C(=O)O (stereo not shown) [Compound 60, 5-[((3-Amino-3-carboxy)propyl)(hydroxy)phosphinyl]pentanoic Acid] |  | mGlu4 activity at 100 μM: inactive at 100 μM (1)
NC(CP(=O)(O)CCC(=O)O)C(=O)O (stereo not shown) [Compound 14] |  | mGlu4 activity at 100 μM: inactive at 100 μM (1) . . .
N[C@@H](CCP(=O)(O)C(CC(=O)O)CP(=O)(O)O)C(=O)O (stereo partly shown) [Compound 44] |  | mGlu4 % max at 100 μM: 33% max at 100 μM (1)
N[C@@H](CCP(=O)(O)C(O)c1cc([N+](=O)[O-])cc([N+](=O)[O-])c1O)C(=O)O (stereo partly drawn) [Compound 76, (3S)-3-[(((3-amino-3-carboxy)propyl)(hydroxy)phosphinyl)-hydroxymethyl] 2-hydroxy-1,5-dinitrobenzene] | 2.3 µM | 
N[C@@H](CCP(=O)(O)Cc1cccc(C(=O)O)c1)C(=O)O [Compound 46, (3S)-3-[(((3-amino-3-carboxy)propyl)(hydroxy)phosphinyl)-methyl]benzoic Acid] |  | mGlu4 % max at 100 μM: 33% max at 100 μM (1)
N[C@@H](CCP(=O)(O)C(O)c1ccc(F)c([N+](=O)[O-])c1)C(=O)O (stereo partly shown) [Compound 50] | 1.02 µM | 
N[C@@H](CCP(=O)(O)C(O)c1cc([N+](=O)[O-])cc([N+](=O)[O-])c1)C(=O)O (stereo partly drawn) [Compound 97, (3S)-3-[(((3-amino-3-carboxy)propyl)(hydroxy)phosphinyl)-hydroxymethyl] 1,5-dinitrobenzene] | 0.81 µM | 
N[C@@H](CCP(=O)(O)CC(CC(=O)O)C(=O)O)C(=O)O (stereo partly drawn) [Compound 19, (3S)-2-[(((3-amino-3-carboxy)propyl)(hydroxy)phosphinyl)-methyl]butane-1,4-dioic Acid] | 28.7 µM | 
N[C@@H](CCP(=O)(O)C(O)c1c([N+](=O)[O-])cccc1[N+](=O)[O-])C(=O)O (stereo partly drawn) [Compound 90, (3S)-2-[(((3-amino-3-carboxy)propyl)(hydroxy)phosphinyl)-hydroxymethyl] 1,3-dinitro benzene] | 1.96 µM | 
N[C@@H](CCP(=O)(O)C(CC(=O)O)CC(=O)O)C(=O)O [Compound 16, (3S)-3-[(((3-amino-3-carboxy)propyl)(hydroxy)phosphinyl)-methyl]pentane-1,5-dioic Acid] |  | mGlu4 % max at 100 μM: 10% max at 100 μM (1)
COc1ccc(C(O)P(=O)(O)CC[C@H](N)C(=O)O)cc1[N+](=O)[O-] (stereo partly drawn) [Compound 58, (3S)-3-[(((3-amino-3-carboxy)propyl)(hydroxy)phosphinyl)-hydroxymethyl] 3-nitro-4-methoxybenzene] | 2.89 µM | 
N[C@@H](CCP(=O)(O)C(O)c1cccc([N+](=O)[O-])c1)C(=O)O (stereo partly drawn) [Compound 56, (3S)-3-[(((3-amino-3-carboxy)propyl)(hydroxy)phosphinyl)-hydroxymethyl] 3-nitrobenzene] | 0.63 µM | 
N[C@@H](CCP(=O)(O)C(O)c1ccc(C(F)(F)F)c([N+](=O)[O-])c1)C(=O)O (stereo partly shown) [Compound 38] | 0.28 µM | 
N[C@@H](CCP(=O)(O)C(O)c1ccc(C(=O)O)cc1)C(=O)O (stereo partly drawn) [Compound 40, (3S)-4-[(((3-amino-3-carboxy)propyl)(hydroxy)phosphinyl)-hydroxymethyl]benzoic Acid] | 31.8 µM | 
N[C@@H](CCP(=O)(O)C(CC(=O)O)C(F)(F)F)C(=O)O (stereo partly drawn) [Compound 28, (3S)-3-[((3-amino-3-carboxy)propyl)(hydroxy)phosphinyl]-3-trifluoromethylpropanoic Acid] |  | mGlu4 % max at 100 μM: 60% max at 100 μM (1)
N[C@@H](CCP(=O)(O)CC(=O)O)C(=O)O [Compound 26, (3S)-2-[((3-amino-3-carboxy)propyl)(hydroxy)phosphinyl]ethanoic Acid] | 3.8 µM | 
N[C@@H](CCP(=O)(O)C(O)c1ccccc1C(=O)O)C(=O)O (stereo partly drawn) [Compound 22, (3S)-2-[(((3-amino-3-carboxy)propyl)(hydroxy)phosphinyl)-hydroxymethyl]benzoic Acid] |  | mGlu4 activity at 100 μM: inactive at 100 μM

More lines, main results first:

EC50 | Compound | other results
1.5 µM | COc1cc(C(O)P(=O)(O)CC[C@H](N)C(=O)O)cc([N+](=O)[O-])c1O (stereo partly drawn) [Compound 64, (3S)-3-[(((3-amino-3-carboxy)propyl)(hydroxy)phosphinyl)-hydroxymethyl]-5-methoxy-6-hydroxy-1-nitrobenzene] | 
> 100 µM | CS(=O)(=O)c1ccc(C(O)P(=O)(O)CC[C@H](N)C(=O)O)cc1 (stereo partly drawn) [Compound 74, (3S)-4-[(((3-amino-3-carboxy)propyl)(hydroxy)phosphinyl)-hydroxymethyl]methylsulphonylbenzene] | 
2.74 µM | N[C@@H](CCP(=O)(O)C(O)c1ccc(Cl)c([N+](=O)[O-])c1)C(=O)O (stereo partly drawn) [Compound 66, (3S)-3-[(((3-amino-3-carboxy)propyl)(hydroxy)phosphinyl)-hydroxymethyl]-6-chloro-1-nitrobenzene] | 
15.2 µM | N[C@@H](CCP(=O)(O)C(O)c1cccc([N+](=O)[O-])c1O)C(=O)O (stereo partly drawn) [Compound 78, (3S)-3-[(((3-amino-3-carboxy)propyl)(hydroxy)phosphinyl)-hydroxymethyl] 2-hydroxy-nitrobenzene] | 
0.305 µM | N[C@@H](CCP(=O)(O)C(O)c1ccc([N+](=O)[O-])c(C(F)(F)F)c1)C(=O)O (stereo partly drawn) [Compound 94, (3S)-4-[(((3-amino-3-carboxy)propyl)(hydroxy)phosphinyl)-hydroxymethyl] 2-trifluoro methyl-1-nitrobenzene] | 
0.31 µM | N[C@@H](CCP(=O)(O)C(O)c1ccc([N+](=O)[O-])s1)C(=O)O (stereo partly drawn) [Compound 86, (3S)-2-[(((3-amino-3-carboxy)propyl)(hydroxy)phosphinyl)-hydroxymethyl] 5-nitrothiophene] | 
5.19 µM | N[C@@H](CCP(=O)(O)C(O)c1c(F)c(F)c(F)c(F)c1F)C(=O)O (stereo partly drawn) [Compound 80, (3S)-1-[(((3-amino-3-carboxy)propyl)(hydroxy)phosphinyl)-hydroxymethyl] 2,3,4,5,6-pentafluorobenzene] | 
0.087 µM | N[C@@H](CCP(=O)(O)C(O)c1ccc([N+](=O)[O-])o1)C(=O)O (stereo partly drawn) [Compound 84, (3S)-2-[(((3-amino-3-carboxy)propyl)(hydroxy)phosphinyl)-hydroxymethyl] 5-nitrofuran] | 
2 µM | N[C@@H](CCP(=O)(O)C(O)c1ccc(O)c([N+](=O)[O-])c1)C(=O)O (stereo partly drawn) [Compound 62, (3S)-3-[(((3-amino-3-carboxy)propyl)(hydroxy)phosphinyl)-hydroxymethyl]-6-hydroxy-1-nitrobenzene] | 
> 100 µM | N[C@@H](CCP(=O)(O)C(O)c1ccc(N2CCOCC2)c([N+](=O)[O-])c1)C(=O)O (stereo partly drawn) [Compound 68, (3S)-3-[(((3-amino-3-carboxy)propyl)(hydroxy)phosphinyl)-hydroxymethyl]-6-morpholino-1-nitro benzene] | 
1.98 µM | N[C@@H](CCP(=O)(O)C(O)c1ccc(C(F)(F)F)o1)C(=O)O (stereo partly drawn) [Compound 88, (3S)-2-[(((3-amino-3-carboxy)propyl)(hydroxy)phosphinyl)-hydroxymethyl] 5-trifluoromethylfuran] | 
1.17 µM | N[C@@H](CCP(=O)(O)C(O)c1cc([N+](=O)[O-])ccc1O)C(=O)O (stereo partly drawn) [Compound 82, (3S)-3-[(((3-amino-3-carboxy)propyl)(hydroxy)phosphinyl)-hydroxymethyl] 4-hydroxy-nitrobenzene] | 
0.93 µM | N[C@@H](CCP(=O)(O)C(O)c1ccc([N+](=O)[O-])cc1)C(=O)O (stereo partly drawn) [Compound 72, (3S)-4-[(((3-amino-3-carboxy)propyl)(hydroxy)phosphinyl)-hydroxymethyl] nitrobenzene] | 
